How the values were obtained:
Type in all cases: physicochemical
[1] = Spectrophotometric testing: dye hue (λmax and half-bandwidth); details: dye image, density about 1.0, C41 processing
Description: (§1) Each coupler of the invention and each comparison coupler was dissolved in half its weight of tricresylphosphate as the coupler solvent using 2-(2-butoxyethoxy)ethyl acetate as the auxiliary solvent. The coupler was dispersed in a gelatin solution and the auxiliary solvent was removed by evaporation under reduced pressure.
(§2) Experimental photographic coatings were prepared by coating a cellulose acetate film support with a photosensitive layer comprising a dispersion of the coupler as formulated above coated at a laydown of 1.04 mmol m^-2, a silver chlorobromide emulsion at 1.61 gm^-2 Ag, gelatin at 2.42 gm^-2 and a hardener at 0.06 gm^-2. An overcoat containing gelatin at 1.5 gm^-2 was applied to the photosensitive layer.
(§3) The dried experimental coating was then slit and chopped into test strips.
(§4) The test strips were exposed through a neutral density step-wedge test object. The strips were then processed through a standard C41 processing cycle as described in the British Journal of Photographic Annual 1977, pages 204-5. The processed strips were then dried to give stepped dye images.
(§5) Test strips were exposed as above through a step-wedge test object and appropriate filters to give to give an optical density of about 1.0. The strips were processed using the standard conditions described above and samples cut from the dye image step with density closest to 1.0. Visible absorption spectra (normalized to 1.0 density) were obtained using a spectrophotometer.
Dye hues are expressed in terms of the wavelength corresponding to the maximum absorption peak (λmax) and the half-bandwidth (HBW) calculated from the spectrophotometric curves.
(§6) In the following Examples, Couplers 1 to 6 are as defined above. Comparison Couplers C-1 to C-6 have the same structures as Couplers 1 to 6, respectively, except that the silyl group is replaced by a hydrogen atom. For example, Coupler C-1 has the structure depicted by Formula I wherein Q=C1 and R=H.

[2] = Solubility of the coupler in di-n-butylphthalate coupler solvent (dye dispersibility)
From the text: as §6

[3] = Dye stability testing: dark keeping, dark/wet fade; details: dye image from coupler, dark oven, 60° C., 70% relative humidity, fractional density change at absorption maximum
Description: as §1, §2, §3, §4, §5
Dye sample patches having a density of about 1.0 were prepared as for spectrophotometric testing and their absorption spectram measured as above.
[…] The spectrophotometric curves of the samples were then remeasured and the degree of fade quoted as the fractional decrease in density at the absorption maximum relative to the initial density prior to fading. The results are presented as dark/wet fade data.
as §6

| Solubility ([2]; 20 mg in 1 ml di-n-butylphthalate, 2 min on steam bath at 80° C.) | Solubility ([2]; 40 mg in 1 ml di-n-butylphthalate, 6 min on steam bath at 80° C.) | Solubility ([2]; 100 mg in 1 ml di-n-butylphthalate, 6 min on steam bath at 80° C.) | Structure (SMILES) | HBW (half-bandwidth) of dye absorption [1] [nm] | λmax of dye [1] | Solubility ([2]; 80 mg in 0.05 ml di-n-butylphthalate, 1 min on steam bath at 80° C.) | Solubility ([2]; 80 mg in 0.1 ml di-n-butylphthalate, 1 min on steam bath at 80° C.) | Solubility relative to Coupler C-1 ([2]; compared with Coupler C-1 under these conditions (di-n-butylphthalate, steam bath 80° C.)) | Dark/Wet Fade, 1 wk [3] | Dark/Wet Fade, 3 wk [3] | Dark/Wet Fade [3] |
| --- | --- | --- | --- | --- | --- | --- | --- | --- | --- | --- | --- |
|  |  |  | CCCCCCCCCCC(Oc1ccc(S(=O)(=O)c2ccc(O[Si](C)(C)C(C)(C)C)cc2)cc1)C(=O)Nc1ccc(Cl)c(NC2=NN(c3c(Cl)cc(Cl)cc3Cl)C(=O)C2)c1 (stereo not drawn) [Coupler 4] | 84.5 | 541.5 |  |  |  |  |  |  |
|  |  |  | CCCCCCCCCCC(Oc1ccc(S(=O)(=O)c2ccc(O[Si](C)(C)C(C)(C)C)cc2)cc1)C(=O)Nc1ccc(CCCc2n[nH]c3c(Cl)c(C)nn23)cc1 (stereo not drawn) [Coupler 1] | 86.5 | 548.5 | soluble | soluble | greater than ten times more soluble | +0.02 | 0.00 | +0.01 |
|  |  |  | CCCCCCCCCCCCC(Oc1ccc(O)c(C(C)(C)C)c1)C(=O)Nc1ccc(Cl)c(NC2=NN(c3c(Cl)cc(Cl)cc3Cl)C(=O)C2)c1 (stereo not drawn) [Coupler C-3] | 82 | 544.5 |  |  |  | -0.04 | -0.09 | -0.08 |
| soluble | soluble | insoluble | CCCCCCCCCCC(Oc1ccc(S(=O)(=O)c2ccc(O)cc2)cc1)C(=O)Nc1ccc(CCCc2n[nH]c3c(Cl)c(C)nn23)cc1 (stereo not drawn) [Coupler C-1] | 89.5 | 553 |  |  |  | +0.07 | +0.06 | +0.05 |
|  |  |  | CCCCCCCCCCC(Oc1ccc(S(=O)(=O)c2ccc(O)cc2)cc1)C(=O)Nc1ccc(Cl)c(NC2=NN(c3c(Cl)cc(Cl)cc3Cl)C(=O)C2)c1 (stereo not drawn) [Coupler C-4] | 92 | 545.5 |  |  |  |  |  |  |
|  |  |  | CCCCCCCCCCCCC(Oc1ccc(O[Si](C)(C)C(C)(C)C)c(C(C)(C)C)c1)C(=O)Nc1ccc(Cl)c(NC2=NN(c3c(Cl)cc(Cl)cc3Cl)C(=O)C2)c1 (stereo not drawn) [Coupler 3] | 78.5 | 539.5 |  |  |  | -0.02 | -0.09 | -0.04 |
